Experiment [1] has as its system IKZF2. The experiment can be described thus: Cellular degradation assay, eGFP-IKZF2Δ fusion with mCherry reporter in Flp-In 293 cells. Type of experiment: cell-based. Particulars: 5 h incubation, n=1. The procedure, abridged: (§1)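 DC50,5 h derived by variable-slope nonlinear fit of the per-well ratio of GFP-positive to mCherry-positive cells, imaged after 5 h compound exposure at 0.5% DMSO.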

For experiment [2], the target named is GSPT1 (Homo sapiens, UniProt P15170+Q96SW2). Put plainly: Cellular degradation assay, eGFP-GSPT1 fusion with mCherry reporter in Flp-In 293 cells. Also on record: expressed in transfected cells; host or cells: Flp-In 293. Type of experiment: cell-based. Particulars: 5 h incubation, n=1. The procedure, abridged:
as §1

Experiment [3] has as its target T1, CRBN and Helios (IKZF2) (Homo sapiens, UniProt Q96SW2+Q9UKS7).
T1 construct: His (N); Strep (N)
Put plainly: TR-FRET dimerization assay (CRBN-IKZF2 ternary complex formation). In kind it is binding. Particulars: n=1. Put shortly:
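Compound-induced IKZF2 recruitment to CRBN was read as the 520/490 nm TR-FRET ratio after 15 min at rt. The mix held biotinylated IKZF2, BODIPY-labeled CRBN bound to DDB1 lacking the BPB propeller, tracer Tb-streptavidin and compound titrations; n=1, from ≥3 technical replicates per well.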
For orientation: TR-FRET usually uses a lanthanide donor and a delayed reading to cut background.

For experiment [4], the target named is T2, SALL4 ZNF1-2 (Homo sapiens, UniProt Q96SW2+Q9UJQ4).
T2 construct: IKZF1Δ, IKZF2Δ, GSPT1 and SALL4 ZnF1-2 were subcloned; expressed in transfected cells; host or cells: Flp-In 293
The experiment can be described thus: Cellular degradation assay, eGFP-SALL4 ZnF1-2 fusion with mCherry reporter in Flp-In 293 cells. Type of experiment: cell-based. Particulars: 5 h incubation, n=1. As for the experimental part:
IKZF1Δ, IKZF2Δ, GSPT1 and SALL4 ZnF1-2 were subcloned into mammalian pcDNA5/FRT Vector (Ampicillin and Hygromycin B resistant) modified to contain MCS-eGFP-P2A-mCherry. Stable cell lines expressing eGFP-protein fusion and mCherry reporter were generated using Flp-In™ 293 system. Plasmid (0.3 μg) and pOG44 (4.7 μg) DNA were preincubated in 100 μL of Opti-MEM® I (Gibco®, Life Technologies™) media containing 0.05 mg/mL Lipofectamine® 2000 (Invitrogen™) for 20 min and added to Flp-In™ 293 cells containing 1.9 ml of DMEM media (Gibco®, Life Technologies™) per well in a 6-well plate format (Falcon, 353046). Cells were propagated after 48 h and transferred into a 10 cm^2 plate (Corning, 430165) in DMEM media containing 50 μg/mL of Hygromycin B (REF 10687010, Invitrogen™) as a selection marker. Following 2-3 passage cycle, FACS (FACSAria™ II, BD) was used to enrich for cells expressing eGFP and mCherry. Cells stably expressing the IKZF1Δ, IKZF2Δ, GSPT1 or SALL4 Znf1-2 GFP fusions with mCherry reporter were seeded at 30-50% confluency in 384-well plates with 50 μL FluoroBrite™ DMEM media (Thermo Fisher Scientific, A18967) containing 10% FBS per well a day before compound treatment. Compound titrations were dispensed using a D300e Digital Dispenser (HP), normalized to 0.5% DMSO, and incubated with cells for 5 hours. The assay plate was imaged immediately using an Acumen® High Content Imager (TTP Labtech) with 488 nm and 561 nm lasers in […] grid per well format.
The resulting images were analyzed using CellProfiler™. A series of image analysis steps (‘image analysis pipeline’) was constructed. First, the red and green channels were aligned and cropped to target the middle of each well (to avoid analysis of heavily clumped cells at the edges), and a background illumination function was calculated for both red and green channels of each well individually and subtracted to correct for illumination variations across the 384-well plate from various sources of error. An additional step was then applied to the green channel to suppress the analysis of large auto fluorescent artifacts and enhance the analysis of cell specific fluorescence by way of selecting for objects under a given size, 30 A.U., and with a given shape, speckles. mCherry-positive cells were then identified in the red channel filtering for objects between 8-60 pixels in diameter and using intensity to distinguish between clumped objects. The green channel was then segmented into GFP positive and negative areas and objects were labeled as GFP positive if at least 40% of it overlapped with a GFP positive area. The fraction of GFP-positive cells/mCherry-positive cells in each well was then calculated, and the green and red images were rescaled for visualization.

The target of experiment [5] is T3, IKZF1 (Homo sapiens, UniProt Q13422).
T3 construct: expressed in transfected cells; host or cells: Flp-In 293
The experiment can be described thus: Cellular degradation assay, eGFP-IKZF1Δ fusion with mCherry reporter in Flp-In 293 cells. Type of experiment: cell-based. To be noted: 5 h incubation, n=1. Put shortly: as §1

[6] abbreviates: compound concentration 2.00E−05.
The mark [7] stands for this setting: compound concentration 2.00E−06.
The mark [8] stands for this setting: compound concentration 2.00E−07.
The mark [9] stands for this setting: compound concentration 6.6667E−05.
Setting [10] is: compound concentration 6.6667E−06.
[11] abbreviates: compound concentration 6.6667E−07 (667 nM).

We go through 6 compounds from patent US12227488B2, “Small molecule degraders of Helios and methods of use” (DANA-FARBER CANCER INSTITUTE, INC., priority 2018, dated 2025).

SMILES strings stand for the structures.

T3 sequence (Q13422 83-213 isoform Q13422-7 limits assumed): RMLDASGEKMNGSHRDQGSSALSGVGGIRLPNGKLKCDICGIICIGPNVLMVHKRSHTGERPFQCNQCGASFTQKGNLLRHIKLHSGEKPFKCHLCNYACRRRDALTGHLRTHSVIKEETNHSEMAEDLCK
T3 sequence (Q96SW2 whole entry partner): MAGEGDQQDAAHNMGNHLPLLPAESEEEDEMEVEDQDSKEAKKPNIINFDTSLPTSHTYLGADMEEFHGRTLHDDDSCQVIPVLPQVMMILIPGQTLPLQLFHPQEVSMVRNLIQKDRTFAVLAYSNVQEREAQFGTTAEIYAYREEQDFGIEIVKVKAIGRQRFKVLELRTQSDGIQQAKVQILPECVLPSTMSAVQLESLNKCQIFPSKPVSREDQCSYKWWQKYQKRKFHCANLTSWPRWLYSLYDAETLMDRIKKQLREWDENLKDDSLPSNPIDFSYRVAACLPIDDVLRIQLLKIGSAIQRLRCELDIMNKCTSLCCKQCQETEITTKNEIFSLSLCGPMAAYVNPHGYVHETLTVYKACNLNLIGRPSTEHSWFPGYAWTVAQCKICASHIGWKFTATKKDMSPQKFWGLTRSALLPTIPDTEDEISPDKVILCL
T3 sequence (Q16531 2-1140 partner limits assumed): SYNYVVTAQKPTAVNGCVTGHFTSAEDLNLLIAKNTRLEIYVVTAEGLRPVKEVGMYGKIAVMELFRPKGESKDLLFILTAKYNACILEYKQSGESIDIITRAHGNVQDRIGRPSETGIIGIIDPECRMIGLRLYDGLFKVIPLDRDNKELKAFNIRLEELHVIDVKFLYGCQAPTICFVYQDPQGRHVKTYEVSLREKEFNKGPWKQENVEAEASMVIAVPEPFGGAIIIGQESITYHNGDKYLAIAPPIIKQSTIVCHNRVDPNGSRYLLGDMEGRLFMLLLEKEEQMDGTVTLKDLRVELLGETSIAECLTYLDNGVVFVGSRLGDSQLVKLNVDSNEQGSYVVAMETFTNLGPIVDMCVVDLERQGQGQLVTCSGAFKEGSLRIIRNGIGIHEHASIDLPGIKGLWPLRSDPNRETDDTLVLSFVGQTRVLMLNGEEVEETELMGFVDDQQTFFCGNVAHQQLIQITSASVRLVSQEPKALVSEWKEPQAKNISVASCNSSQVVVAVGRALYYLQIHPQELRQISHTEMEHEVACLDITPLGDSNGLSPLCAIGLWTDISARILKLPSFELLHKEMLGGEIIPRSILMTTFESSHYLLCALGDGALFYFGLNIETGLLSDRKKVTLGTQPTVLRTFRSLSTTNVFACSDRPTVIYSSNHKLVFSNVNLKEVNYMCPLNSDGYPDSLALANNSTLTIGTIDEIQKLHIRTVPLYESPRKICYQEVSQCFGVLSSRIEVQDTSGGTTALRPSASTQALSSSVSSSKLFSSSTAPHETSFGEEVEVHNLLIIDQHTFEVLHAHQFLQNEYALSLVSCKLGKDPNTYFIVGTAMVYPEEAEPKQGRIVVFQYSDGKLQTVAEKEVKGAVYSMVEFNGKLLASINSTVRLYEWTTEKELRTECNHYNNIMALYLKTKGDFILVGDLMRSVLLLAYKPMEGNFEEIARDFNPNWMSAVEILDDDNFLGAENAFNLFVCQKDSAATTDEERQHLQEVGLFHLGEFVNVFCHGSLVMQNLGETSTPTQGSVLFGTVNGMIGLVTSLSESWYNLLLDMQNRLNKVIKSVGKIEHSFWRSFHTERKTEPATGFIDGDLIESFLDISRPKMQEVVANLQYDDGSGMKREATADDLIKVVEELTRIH
T1 sequence (Q96SW2 whole entry): as the sequence (Q96SW2 whole entry partner) above
T1 sequence (Q9UKS7 whole entry): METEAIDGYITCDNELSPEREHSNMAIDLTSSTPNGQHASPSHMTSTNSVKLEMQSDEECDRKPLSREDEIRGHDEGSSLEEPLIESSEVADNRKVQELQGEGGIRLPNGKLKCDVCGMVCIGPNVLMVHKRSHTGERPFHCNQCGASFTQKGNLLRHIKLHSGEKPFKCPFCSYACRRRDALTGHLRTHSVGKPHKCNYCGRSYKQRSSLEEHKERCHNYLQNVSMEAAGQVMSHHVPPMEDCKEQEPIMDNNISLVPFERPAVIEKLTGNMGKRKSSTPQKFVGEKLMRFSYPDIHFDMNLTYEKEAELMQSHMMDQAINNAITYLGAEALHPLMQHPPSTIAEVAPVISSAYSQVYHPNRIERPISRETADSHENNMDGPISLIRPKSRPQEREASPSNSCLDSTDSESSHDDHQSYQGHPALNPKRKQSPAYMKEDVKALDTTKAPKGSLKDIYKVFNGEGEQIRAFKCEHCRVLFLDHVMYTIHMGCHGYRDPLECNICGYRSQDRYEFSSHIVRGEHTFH
T2 sequence (Q9UJQ4 378-438 limits assumed): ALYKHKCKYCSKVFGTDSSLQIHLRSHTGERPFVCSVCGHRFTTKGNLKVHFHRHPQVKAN
T2 sequence (Q96SW2 whole entry): as the sequence (Q96SW2 whole entry partner) above
T2 sequence (Q16531 whole entry partner): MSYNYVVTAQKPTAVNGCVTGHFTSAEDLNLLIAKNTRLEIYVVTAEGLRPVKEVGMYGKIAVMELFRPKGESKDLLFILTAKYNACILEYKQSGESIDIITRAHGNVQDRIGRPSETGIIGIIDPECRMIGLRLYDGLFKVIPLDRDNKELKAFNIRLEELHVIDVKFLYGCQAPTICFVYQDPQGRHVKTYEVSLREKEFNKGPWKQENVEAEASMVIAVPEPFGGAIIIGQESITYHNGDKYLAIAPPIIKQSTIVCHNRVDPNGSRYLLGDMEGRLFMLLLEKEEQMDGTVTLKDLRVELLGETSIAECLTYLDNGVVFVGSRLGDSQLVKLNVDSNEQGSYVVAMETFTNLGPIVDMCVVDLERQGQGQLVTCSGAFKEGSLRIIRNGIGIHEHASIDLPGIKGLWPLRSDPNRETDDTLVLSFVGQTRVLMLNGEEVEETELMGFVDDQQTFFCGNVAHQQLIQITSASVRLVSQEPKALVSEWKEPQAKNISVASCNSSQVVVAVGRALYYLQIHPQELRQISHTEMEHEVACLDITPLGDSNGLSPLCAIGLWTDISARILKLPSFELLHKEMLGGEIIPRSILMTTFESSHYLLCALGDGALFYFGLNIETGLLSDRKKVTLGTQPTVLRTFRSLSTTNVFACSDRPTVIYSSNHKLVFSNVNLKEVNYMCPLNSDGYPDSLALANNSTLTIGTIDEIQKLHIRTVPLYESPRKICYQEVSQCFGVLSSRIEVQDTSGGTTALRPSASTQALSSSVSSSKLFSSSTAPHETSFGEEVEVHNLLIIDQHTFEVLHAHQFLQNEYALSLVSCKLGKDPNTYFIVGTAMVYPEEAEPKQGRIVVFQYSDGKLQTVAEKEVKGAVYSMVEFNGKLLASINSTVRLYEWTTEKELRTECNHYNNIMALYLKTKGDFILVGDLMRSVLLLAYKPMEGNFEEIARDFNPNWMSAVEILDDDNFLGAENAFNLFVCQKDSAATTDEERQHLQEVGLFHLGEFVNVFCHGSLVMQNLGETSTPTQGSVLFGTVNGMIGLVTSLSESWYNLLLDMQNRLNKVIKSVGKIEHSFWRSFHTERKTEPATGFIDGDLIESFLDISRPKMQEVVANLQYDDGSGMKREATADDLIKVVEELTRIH
Chain of GSPT1 (P15170 whole entry, the tested form may be a part): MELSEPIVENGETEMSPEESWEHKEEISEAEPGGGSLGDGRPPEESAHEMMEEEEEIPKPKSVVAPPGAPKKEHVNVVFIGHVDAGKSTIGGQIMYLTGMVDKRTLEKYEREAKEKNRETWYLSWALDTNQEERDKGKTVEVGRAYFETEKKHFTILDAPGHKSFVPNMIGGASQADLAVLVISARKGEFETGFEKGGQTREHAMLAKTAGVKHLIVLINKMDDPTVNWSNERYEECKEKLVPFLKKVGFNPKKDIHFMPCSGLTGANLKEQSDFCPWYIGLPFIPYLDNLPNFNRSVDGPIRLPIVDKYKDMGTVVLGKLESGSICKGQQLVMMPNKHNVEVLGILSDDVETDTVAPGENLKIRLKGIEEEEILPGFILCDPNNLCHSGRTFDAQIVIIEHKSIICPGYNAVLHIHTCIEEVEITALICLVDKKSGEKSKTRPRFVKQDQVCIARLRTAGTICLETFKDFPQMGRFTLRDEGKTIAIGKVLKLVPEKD
Chain of GSPT1 (Q96SW2 whole entry, the tested form may be a part): as the sequence (Q96SW2 whole entry partner) above
Chain of GSPT1 (Q16531 whole entry partner, the tested form may be a part): as the sequence (Q16531 whole entry partner) above

`COC(=O)c1n[nH]c(NC2=CC(=O)N(C3CCC(=O)NC3=O)C2=O)n1` (stereo not drawn) [Compound 20, Methyl 5-((1-(2,6-dioxopiperidin-3-yl)-2,5-dioxo-2,5-dihydro-1H-pyrrol-3-yl)amino)-1H-1,2,4-triazole-3-carboxylate]: the “IKZF2 GFP/RFP Relative Abundance” value in experiment [1] (setting [6]) came to 0.952; in experiment [1] (setting [7]), 0.987; in experiment [1] (setting [8]), 1.025. Further, the “GSPT1 GFP/RFP Relative Abundance” value turned out to be 0.901 in experiment [2] (setting [6]), 1.036 in experiment [2] (setting [7]) and 1.069 in experiment [2] (setting [8]). Besides, the results for the “TR-FRET-IKZF2 (Normalized to CC-885)” value in experiment [3] (setting [9]), in experiment [3] (setting [10]) and in experiment [3] (setting [11]) were 0.050, 0.017 and 0.014, respectively. The “SALL4 ZNF1-2 GFP/RFP Relative Abundance” value turned out to be 0.894 in experiment [4] (setting [6]), 0.908 in experiment [4] (setting [7]) and 0.892 in experiment [4] (setting [8]). The “IKZF1 GFP/RFP Relative Abundance” value in experiment [5] (setting [6]) came out at 0.721; in experiment [5] (setting [7]), 0.895; in experiment [5] (setting [8]) it was 0.342.
Take `O=C(O)CCCNC1=CC(=O)N(C2CCC(=O)NC2=O)C1=O` (stereo not drawn) [Compound 21, 4-((1-(2,6-dioxopiperidin-3-yl)-2,5-dioxo-2,5-dihydro-1H-pyrrol-3-yl)amino)butanoic acid]: the “IKZF2 GFP/RFP Relative Abundance” value in experiment [1] (setting [6]) is reported as 0.996; in experiment [1] (setting [7]), 0.951; in experiment [1] (setting [8]), 0.946. Moreover, the “GSPT1 GFP/RFP Relative Abundance” value in experiment [2] (setting [6]) turned out to be 0.693; in experiment [2] (setting [7]), 0.938; in experiment [2] (setting [8]) it was 0.909. For the same compound, the “TR-FRET-IKZF2 (Normalized to CC-885)” value in experiment [3] (setting [9]) is 0.047; in experiment [3] (setting [10]) it was 0.019; in experiment [3] (setting [11]), 0.012. The “SALL4 ZNF1-2 GFP/RFP Relative Abundance” value in experiment [4] (setting [6]) worked out at 0.937; in experiment [4] (setting [7]) it was 0.921; in experiment [4] (setting [8]), 0.957. The “IKZF1 GFP/RFP Relative Abundance” value was determined as 0.842 in experiment [5] (setting [6]), 0.975 in experiment [5] (setting [7]) and 0.998 in experiment [5] (setting [8]).
Consider `O=C(O)CCCCNC1=CC(=O)N(C2CCC(=O)NC2=O)C1=O` (stereo not drawn) [Compound 22, 5-((1-(2,6-dioxopiperidin-3-yl)-2,5-dioxo-2,5-dihydro-1H-pyrrol-3-yl)amino)pentanoic acid], for which the “IKZF2 GFP/RFP Relative Abundance” value in experiment [1] (setting [6]) turned out to be 1.001; in experiment [1] (setting [7]), 0.982; in experiment [1] (setting [8]), 0.935. Also, the “GSPT1 GFP/RFP Relative Abundance” value came out at 1.058 in experiment [2] (setting [6]), 0.883 in experiment [2] (setting [7]) and 0.745 in experiment [2] (setting [8]). Further, the “TR-FRET-IKZF2 (Normalized to CC-885)” value in experiment [3] (setting [9]) worked out at 0.055; in experiment [3] (setting [10]), 0.032; in experiment [3] (setting [11]), 0.018. The entries for the “SALL4 ZNF1-2 GFP/RFP Relative Abundance” value in experiment [4] (setting [6]), in experiment [4] (setting [7]) and in experiment [4] (setting [8]) were 0.953, 0.962 and 1.044, respectively. Besides, the “IKZF1 GFP/RFP Relative Abundance” value in experiment [5] (setting [6]) is listed as 0.984; in experiment [5] (setting [7]), 1.028; in experiment [5] (setting [8]), 0.939.
For the compound `O=C1CCC(N2C(=O)C=C(Nc3cccc(-c4nnn[nH]4)c3)C2=O)C(=O)N1` (stereo not drawn) [Compound 23, 3-(3-((3-(1H-tetrazol-5-yl)phenyl)amino)-2,5-dioxo-2,5-dihydro-1H-pyrrol-1-yl)piperidine-2,6-dione], the “IKZF2 GFP/RFP Relative Abundance” value in experiment [1] (setting [6]) turned out to be 1.013; in experiment [1] (setting [7]), 1.016; in experiment [1] (setting [8]), 1.015. For the same compound, the “GSPT1 GFP/RFP Relative Abundance” value in experiment [2] (setting [6]) came out at 0.976; in experiment [2] (setting [7]), 0.936; in experiment [2] (setting [8]), 0.953. In addition, the entries for the “TR-FRET-IKZF2 (Normalized to CC-885)” value in experiment [3] (setting [9]), in experiment [3] (setting [10]) and in experiment [3] (setting [11]) were 0.326, 0.259 and 0.196, respectively. Moreover, the “SALL4 ZNF1-2 GFP/RFP Relative Abundance” value came out at 0.922 in experiment [4] (setting [6]), 0.979 in experiment [4] (setting [7]) and 0.981 in experiment [4] (setting [8]). In addition, the “IKZF1 GFP/RFP Relative Abundance” value in experiment [5] (setting [6]) worked out at 0.866; in experiment [5] (setting [7]), 1.044; in experiment [5] (setting [8]), 0.756.
`Cc1ccc(NC2=CC(=O)N(C3CCC(=O)NC3=O)C2=O)cc1C` (stereo not drawn) [Compound 24, 3-(3-((3,4-dimethylphenyl)amino)-2,5-dioxo-2,5-dihydro-1H-pyrrol-1-yl)piperidine-2,6-dione]: the “IKZF2 GFP/RFP Relative Abundance” value stood at 0.959 in experiment [1] (setting [6]), 0.954 in experiment [1] (setting [7]) and 1.038 in experiment [1] (setting [8]). Besides, the entries for the “GSPT1 GFP/RFP Relative Abundance” value in experiment [2] (setting [6]), in experiment [2] (setting [7]) and in experiment [2] (setting [8]) were 1.153, 1.221 and 1.218, respectively. Also, the “TR-FRET-IKZF2 (Normalized to CC-885)” value in experiment [3] (setting [9]) stood at 0.391; in experiment [3] (setting [10]) it was 0.344; in experiment [3] (setting [11]), 0.282. Moreover, the “SALL4 ZNF1-2 GFP/RFP Relative Abundance” value was determined as 0.937 in experiment [4] (setting [6]), 0.941 in experiment [4] (setting [7]) and 0.942 in experiment [4] (setting [8]). Further, the “IKZF1 GFP/RFP Relative Abundance” value in experiment [5] (setting [6]) was 0.236; in experiment [5] (setting [7]), 0.342; in experiment [5] (setting [8]), 0.369.
As for `O=C1CCC(N2C(=O)C=C(Nc3ccc(Cl)cc3)C2=O)C(=O)N1` (stereo not drawn) [Compound 25, 3-(3-((4-chlorophenyl)amino)-2,5-dioxo-2,5-dihydro-1H-pyrrol-1-yl)piperidine-2,6-dione], the “IKZF2 GFP/RFP Relative Abundance” value was 0.966 in experiment [1] (setting [6]), 0.978 in experiment [1] (setting [7]) and 0.955 in experiment [1] (setting [8]). Also, the “GSPT1 GFP/RFP Relative Abundance” value in experiment [2] (setting [6]) was 1.019; in experiment [2] (setting [7]), 1.233; in experiment [2] (setting [8]) it was 1.201. In addition, the “TR-FRET-IKZF2 (Normalized to CC-885)” value was 0.339 in experiment [3] (setting [9]), 0.282 in experiment [3] (setting [10]) and 0.230 in experiment [3] (setting [11]). For the same compound, the “SALL4 ZNF1-2 GFP/RFP Relative Abundance” value in experiment [4] (setting [6]) came to 0.831; in experiment [4] (setting [7]), 0.897; in experiment [4] (setting [8]), 0.887. Also, the “IKZF1 GFP/RFP Relative Abundance” value in experiment [5] (setting [6]) was 0.258; in experiment [5] (setting [7]), 0.298; in experiment [5] (setting [8]), 0.341.
